According to PubChem BioAssay AID1418 (Emory University Molecular Libraries Screening Center, 2008):
Calls of active or inactive are those of the source. The rule behind the calls is not given here.

Molecular target: Induced myeloid leukemia cell differentiation protein Mcl-1 (Homo sapiens) (UniProt Q07820)
Experiment: blockers of Bid binding to Mcl-1 – biochemical, TR-FRET, dose response (AID 1418)
Conditions: Mcl-1/Bid peptide binding, TR-FRET (europium/Dy647), 2 hr

Chain of Induced myeloid leukemia cell differentiation protein Mcl-1 (Homo sapiens) (Q07820 whole entry, looked up): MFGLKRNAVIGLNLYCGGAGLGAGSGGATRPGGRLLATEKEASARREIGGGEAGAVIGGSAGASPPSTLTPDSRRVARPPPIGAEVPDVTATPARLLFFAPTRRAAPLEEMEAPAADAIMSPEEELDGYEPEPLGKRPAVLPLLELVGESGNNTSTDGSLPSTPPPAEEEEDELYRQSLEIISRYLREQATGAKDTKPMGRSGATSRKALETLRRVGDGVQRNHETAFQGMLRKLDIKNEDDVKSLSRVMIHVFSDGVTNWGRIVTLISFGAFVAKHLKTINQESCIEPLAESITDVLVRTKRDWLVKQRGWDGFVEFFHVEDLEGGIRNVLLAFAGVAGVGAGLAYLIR

Structure (SMILES) | IC50
O=C(N/N=C/c1ccco1)c1ccc(N2CCCC2=O)cc1 | > 54 µM (inactive)
CCOc1ccc(-c2ccc(/C=C3/C(=N)N4C=CSC4=NC3=O)o2)c([N+](=O)[O-])c1 | 0.86 µM
O=C1CSC(c2cccnc2)N1c1ccc(Cl)cc1 (stereo not given) | > 54 µM (inactive)
CCN1C(=O)/C(=c2\s/c(=C3\Sc4ccccc4N3C)c(=O)n2C)N(C)C1=S | inactive
Cc1nc2c(-c3ccc(Cl)cc3)cnn2c2c1CCC2 | > 54 µM (inactive)
COc1cccc(NC(=O)C2c3cc(OC)c(OC)cc3C(=O)N(C)C2c2cccnc2)c1 (stereo not given) | > 54 µM (inactive)
Cc1cc(O)ccc1N/C=C(\C#N)c1nc2ccccc2o1 | > 54 µM (inactive)
COc1cc(S(=O)(=O)Nc2cccc(C)c2)ccc1NC(=O)c1ccncc1 | > 54 µM (inactive)
N=C1S/C(=C\c2ccc(-c3cccc(Cl)c3)o2)C(=O)N1c1nccs1 | 1.05 µM
Cc1ccc(S(=O)(=O)N/N=C/c2cnn(C)c2C)cc1 | > 54 µM (inactive)
CC(C)(C)CC(C)(C)NC(=S)NC1CCN(Cc2ccccc2)CC1 | > 54 µM (inactive)
COc1ccc(NC(=O)CN2C(=O)/C(=C3\SC(=S)N(C4CCS(=O)(=O)C4)C3=O)c3ccccc32)cc1 (stereo not given) | 0.72 µM
O=C(COc1ccc(S(=O)(=O)N2CCCC2)cc1Cl)NC1CC1 | > 54 µM (inactive)
O=C1OC(c2ccccc2)=C/C1=C/N1CCCCC1 | > 54 µM (inactive)
O=C(CN1C(=O)NC2(CCc3ccccc3C2)C1=O)Nc1ccc(F)cc1 (stereo not given) | > 54 µM (inactive)
O=C(Nc1ccc2c(c1)OCCO2)NC1(C(F)(F)F)Oc2ccccc2O1 | > 54 µM (inactive)
CC1(C)CC(=O)C2=C(C1)OC(N)=C(C#N)C2c1cccc(OC(=O)c2ccco2)c1 (stereo not given) | > 54 µM (inactive)
CSC(=NCc1cccnc1)NS(=O)(=O)c1cccs1 | > 54 µM (inactive)
CCOC(=O)c1nc(C)sc1-c1ccnn1S(=O)(=O)c1ccc(C)cc1 | > 54 µM (inactive)
O=C(Cc1sc(-c2ccccc2Cl)nc1-c1ccccc1)Nc1ccccc1 | > 54 µM (inactive)
CCOc1ccc(-c2nnc(-c3ccccc3)n2-c2ccccc2)cc1 | inactive
Cc1ccc(NC(=O)CN2CCc3ccccc3C2)cc1F | > 54 µM (inactive)
COc1ccccc1NC(=O)C(=O)N/N=C/c1ccc([N+](=O)[O-])s1 | > 54 µM (inactive)
N=C1/C(=C/c2cccn2-c2cccc([N+](=O)[O-])c2)C(=O)N=C2SC=CN12 | 12.5 µM

Structure (SMILES) | IC50
Cc1cc(=O)[nH]c(SCC(=O)c2ccc3c(c2)NC(=O)CO3)n1 | > 54 µM (inactive)
O=C(CSc1nc(-c2ccccc2)nc2c1Cc1ccccc1O2)Nc1ccc(C(=O)O)cc1 | 3.03 µM
O=c1c2ccccc2nc(/C=C/c2cccnc2)n1Cc1ccccc1 | 0.54 µM
S=C(NCc1ccc(Cl)cc1)NC1CCN(Cc2ccccc2)CC1 | > 54 µM (inactive)
COc1ccc2nc(-n3c(O)c(C4=c5ccccc5=NC4=O)[nH]c3=S)sc2c1 | 1.38 µM
CCCCCCCCCCCCCCCC[n+]1cccc2ccccc21 | 6.64 µM
O=C(O)CCN1C(=O)S/C(=C\c2cccnc2)C1=O | > 54 µM (inactive)
CN(Cc1ccccc1)Cc1nc2c([nH]1)c(=O)[nH]c(=O)n2C | > 54 µM (inactive)
COc1cccc(CN(C(=O)/C=C/c2ccc(Cl)cc2)C2CCS(=O)(=O)C2)c1 (stereo not given) | > 54 µM (inactive)
CC(C)(C)c1c(Cl)c(O)c(-c2ccccc2)c(=O)n1-c1ccccc1 | 0.68 µM
Cc1noc2ncnc(SCc3ccc(C(F)(F)F)cc3)c12 | > 54 µM (inactive)
Cc1ccc(C(C)C)cc1NC(=O)Nc1ccc([N+](=O)[O-])cc1 | > 54 µM (inactive)
c1ccc(Oc2nc3ccccc3n3cccc23)cc1 | > 54 µM (inactive)
CC(C)CN(CC(C)C)C(=S)NC1CCCCC1 | > 54 µM (inactive)
COc1ccc(C(=O)N(Cc2ccccc2)Cc2cc3cc4c(cc3[nH]c2=O)OCCO4)cc1 | > 54 µM (inactive)
O=C(O)c1ccccc1-c1ccc(/C=c2\sc3nc4cc(Br)cnc4n3c2=O)o1 | 18.5 µM
O=c1c(C(c2ccccc2)c2c(O)sc3ccccc3c2=O)c(O)sc2ccccc12 | 10.6 µM
O=C(O)CC(NC(=O)COc1ccc(Cl)cc1Cl)C(=O)O (stereo not given) | > 54 µM (inactive)
O=C(O)CCCCCN1C(=O)/C(=C\c2cn(-c3ccccc3)nc2-c2cccs2)SC1=S | 9.29 µM
Cc1cc2nc(-c3ccc(NC(=O)C(C)C)cc3)oc2cc1C | 3.02 µM
CC(=O)c1ccc(Oc2ccc(C(C)=O)cc2)cc1 | > 54 µM (inactive)
O=S(=O)(c1ccccc1F)N1CCN(Cc2nc3ccccc3[nH]2)CC1 | > 54 µM (inactive)
CCOc1cc(C=C2C(=O)c3ccccc3C2=O)ccc1OCC(=O)Nc1ccc(C)cc1 | 1.2 µM
O=C(Cn1c(C(F)(F)F)nc2ccccc21)c1ccc(F)cc1 | > 54 µM (inactive)

Structure (SMILES) | IC50
O=C(NN1C(=O)C2C(C1=O)C1C=CC2C12CC2)c1ccc(Cl)cc1 (stereo not given) | > 54 µM (inactive)
CCOC(=O)C1CCCN(Cc2ccccc2OCC)C1 (stereo not given) | > 54 µM (inactive)
O=C1C(=Cc2ccc(Br)o2)C(=O)c2ccccc21 | 3.15 µM
O=c1[nH]c(O)c(/C=C2/C=CC(c3cc(Cl)ccc3Cl)=N2)c(=O)[nH]1 | 1.07 µM
CNC(=O)C(=O)NCCN1CCN(C(=O)c2ccc([N+](=O)[O-])cc2)CC1 | > 54 µM (inactive)
COc1cc(NS(=O)(=O)c2ccc(NC(=S)NC(=O)c3sc4ccccc4c3Cl)cc2)nc(OC)n1 | > 54 µM (inactive)
COc1ccccc1OCCOc1ccc(/C=C2/C(=N)N3OC(C)=CC3=NC2=O)cc1OC | 0.56 µM
CC(Sc1nnc2c(n1)C1CCC2(C)C1(C)C)C(=O)Nc1ccccc1 (stereo not given) | > 54 µM (inactive)
C#CCOCCOCCOCCNc1nc(N2CCN(C(=O)[C@H](Cc3ccc(O)cc3)n3cc([C@@H](N)C(C)CC)nn3)CC2)nc(N2CCN(C(=O)[C@H](Cc3cc4ccccc4[nH]3)n3cc([C@@H](N)C(C)CC)nn3)CC2)n1 (stereo not given in full) | 0.82 µM
CCNc1ccc2c(Cl)cc(=O)oc2c1 | > 54 µM (inactive)
CCCCOc1ccc(C(=O)NCCC(=O)NCCCC(=O)OCC)cc1 | > 54 µM (inactive)
CN(C(=O)c1ccc(C#N)cc1)c1nnc(-c2cnccn2)s1 | > 54 µM (inactive)
CC(C)N1C(=O)/C(=C/c2nc3ccccc3c(=O)n2-c2ccccc2)c2ccccc21 | 0.99 µM
COC(=O)c1ccc(Oc2coc3cc(OCc4ccc([N+](=O)[O-])cc4)ccc3c2=O)cc1 | > 54 µM (inactive)
CCOc1cc(/C=C2\C(=O)N(c3nc(-c4ccc(Br)cc4)cs3)N=C2c2ccccc2)ccc1O | 0.75 µM
O=[N+]([O-])c1cccc(S(=O)(=O)Nc2nc3ccccc3nc2Nc2cccc(S(=O)(=O)N3CCCCC3)c2)c1 | inactive
Nc1ccc(C(=O)N/N=C\c2cc(N=Nc3cccc4ccccc34)ccc2O)cc1 | 12 µM
N#Cc1c2nc3ccccc3nc2n2cc(NC(=O)c3ccc(F)cc3)ccc12 | 0.71 µM
O=C(O)CCCN1C(=O)/C(=C\c2ccc(-c3nc4ccccc4s3)o2)SC1=S | 0.53 µM
Cc1nc2sc(C(c3cccs3)N3CCOCC3)c(O)n2n1 (stereo not given) | > 54 µM (inactive)
N/C(CS(=O)(=O)c1ccc(F)cc1)=N\O | > 54 µM (inactive)
OCC1CCCN(c2nc(CN3CCCCC3)nc3scc(-c4ccccc4)c23)C1 (stereo not given) | > 54 µM (inactive)
